From US11608335B2, “Somatostatin modulators and uses thereof” (CRINETICS PHARMACEUTICALS, INC., priority 2018, dated 2023)
Where two headings read alike, the source gives them in different places.

What was measured:
[1] = biological target: human somatostatin receptor subtype 5 (Homo sapiens, UniProt P35346); assay: cAMP assay for SST5R (inhibition of cAMP via human SST5 receptor)
[2] = biological target: T1, human somatostatin receptor subtype 2 (Homo sapiens, UniProt P30874); assay: cAMP assay for SST2R (inhibition of cAMP via human SST2 receptor); format: cell-based; details: Table B, read-out: SST2 potency
T1 construct: expressed in transfected cells
T1 sequence (P30874 whole entry): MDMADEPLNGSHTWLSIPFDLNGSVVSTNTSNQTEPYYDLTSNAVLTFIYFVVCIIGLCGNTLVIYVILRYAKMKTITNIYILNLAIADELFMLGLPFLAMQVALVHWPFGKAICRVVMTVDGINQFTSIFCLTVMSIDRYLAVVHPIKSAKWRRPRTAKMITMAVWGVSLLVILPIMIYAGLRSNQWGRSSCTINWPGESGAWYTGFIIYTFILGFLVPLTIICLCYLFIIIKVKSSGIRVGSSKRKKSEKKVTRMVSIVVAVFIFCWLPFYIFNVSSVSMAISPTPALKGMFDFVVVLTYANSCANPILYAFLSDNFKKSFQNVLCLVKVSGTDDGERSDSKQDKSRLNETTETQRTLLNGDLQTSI
Text: cAMP Assay Protocol for SST2R:

[3] = SST5 over SST2, given as number (comparison compounds)
[4] = read-out: SST5 potency, inhibition of cAMP via human SST5 receptor, Table B

Sequence of human somatostatin receptor subtype 5 (P35346 whole entry): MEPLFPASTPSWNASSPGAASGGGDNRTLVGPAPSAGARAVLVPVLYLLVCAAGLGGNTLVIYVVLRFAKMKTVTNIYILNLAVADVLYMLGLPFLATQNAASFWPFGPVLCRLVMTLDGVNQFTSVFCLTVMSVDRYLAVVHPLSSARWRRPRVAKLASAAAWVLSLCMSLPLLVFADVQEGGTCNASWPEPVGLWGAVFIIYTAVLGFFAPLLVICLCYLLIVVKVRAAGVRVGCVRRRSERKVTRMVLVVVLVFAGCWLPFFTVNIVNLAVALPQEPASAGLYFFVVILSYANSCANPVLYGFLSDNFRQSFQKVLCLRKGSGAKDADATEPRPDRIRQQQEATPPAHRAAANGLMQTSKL

| EC50 [1] | Fold selectivity for SST5 vs SST2 [1, 3] | EC50 [2] | Fold selectivity for SST5 vs SST2 ([1]; SST5 over SST2, class symbols) | EC50 [1, 4] | SMILES |
| --- | --- | --- | --- | --- | --- |
| > 1000 nM | 0.009 | 10 to 100 nM |  |  | Cc1ccnc2nc(-c3cncc(-c4cccc(Cl)c4)c3N3CCC(N)CC3)[nH]c12 |
| > 1000 nM | 0.002 | < 10 nM |  |  | Cc1cccc(-c2cncc(-c3nc4c(C)cccc4[nH]3)c2N2CCC(N)CC2)c1 |
| 100 to 1000 nM | 0.0008 | < 10 nM |  |  | Cc1cc(F)cc(-c2cncc(-c3nc4cccc(Cl)c4[nH]3)c2N2CCC(N)CC2)c1 |
| < 10 nM |  | 100 to 1000 nM | ++ (++=100 to 499) | < 10 nM | Cc1cc(F)cc(-c2cncc(-c3nc4cccc(Cl)c4[nH]3)c2N2CC(CN)C2)c1 [Compound 1-3, 1-{1-[3-(4-chloro-1H-1,3-benzodiazol-2-yl)-5-(3-fluoro-5-methylphenyl)pyridin-4-yl]azetidin-3-yl}methanamine] |
| 10 to 100 nM |  | > 1000 nM | ++ (++=100 to 499) | 10 to 100 nM | Cc1cc(F)cc(-c2cncc(-c3nc4cc(Cl)ccc4[nH]3)c2N2CC(CN)C2)c1 [Compound 1-4, 1-{1-[3-(5-chloro-1H-1,3-benzodiazol-2-yl)-5-(3-fluoro-5-methylphenyl)pyridin-4-yl]azetidin-3-yl}methanamine] |
|  |  | > 1000 nM |  |  | Cc1cc(F)cc(-c2cncc(-c3nc4c(F)c(F)ccc4[nH]3)c2N2CC(CN)C2)c1 [Compound 1-6, 1-{1-[3-(4,5-difluoro-1H-1,3-benzodiazol-2-yl)-5-(3-fluoro-5-methylphenyl)pyridin-4-yl]azetidin-3-yl}methanamine] |
|  |  | 100 to 1000 nM |  |  | Cc1cc(F)cc(-c2cncc(-c3nc4c(F)cc(F)cc4[nH]3)c2N2CC(C(C)N)C2)c1 (stereo not shown) [Compound 1-42, 1-{1-[3-(4,6-difluoro-1H-1,3-benzodiazol-2-yl)-5-(3-fluoro-5-methylphenyl)pyridin-4-yl]azetidin-3-yl}ethan-1-amine] |
|  |  | > 1000 nM |  |  | CC(N)C1CN(c2c(-c3cc(F)cc(C#N)c3)cncc2-c2nc3c(F)cc(F)cc3[nH]2)C1 (stereo not shown) [Compound 1-64, 3-{4-[3-(1-aminoethyl)azetidin-1-yl]-5-(4,6-difluoro-1H-1,3-benzodiazol-2-yl)pyridin-3-yl}-5-fluorobenzonitrile] |
|  |  | 100 to 1000 nM |  |  | Cc1cc(F)cc(-c2cncc(-c3nc4cc(F)cc(F)c4[nH]3)c2N2CCC(N)C2)c1 (stereo not shown) [Compound 2-1, 1-[3-(4,6-difluoro-1H-1,3-benzodiazol-2-yl)-5-(3-fluoro-5-methylphenyl)pyridin-4-yl]pyrrolidin-3-amine] |
|  |  | 100 to 1000 nM |  |  | N[C@H]1CCN(c2c(-c3cc(F)cc(Cl)c3)cncc2-c2nc3c(F)cccc3[nH]2)C1 [Compound 2-3, (3 S)-1-[3-(3-chloro-5-fluorophenyl)-5-(4-fluoro-1H-1,3-benzodiazol-2-yl)pyridin-4-yl]pyrrolidin-3-amine] |
|  |  | > 1000 nM |  |  | N#Cc1cc(F)cc(-c2cncc(-c3nc4c(F)cccc4[nH]3)c2N2CC[C@H](N)C2)c1 [Compound 2-8, 3-{4-[(3S)-3-aminopyrrolidin-1-yl]-5-(4-fluoro-1H-1,3-benzodiazol-2-yl)pyridin-3-yl}-5-fluorobenzonitrile] |
|  |  | 100 to 1000 nM |  |  | N#Cc1cc(-c2cncc(-c3nc4c(Cl)cccc4[nH]3)c2N2CC[C@H](N)C2)ccc1F [Compound 2-51, 5-{4-[(3S)-3-aminopyrrolidin-1-yl]-5-(4-chloro-1H-1,3-benzodiazol-2-yl)pyridin-3-yl}-2-fluorobenzonitrile] |
|  |  | 100 to 1000 nM |  |  | Cc1cc(F)cc(-c2cncc(-c3nc4c(F)cccc4[nH]3)c2N2CC[C@H](N)C2)c1 [Compound 2-193, (3S)-1-[3-(4-fluoro-1H-1,3-benzodiazol-2-yl)-5-(3-fluoro-5-methylphenyl)pyridin-4-yl]pyrrolidin-3-amine] |
